Laboratory results published in PubChem BioAssay AID2286 (Southern Research Specialized Biocontainment Screening …, 2010).
Active and inactive are the calls of the source.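 Rule for the calls: active = minimum cell viability of 80% or lower across the dose range, counted as toxic; inactive = minimum cell viability above 80%.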

Test: MAGI-CCR5 and HeLa-R5-16 cytotoxicity, dose response, cytotoxicity control for HIV-1 fusion inhibitor project, cell-based, MAGI and MAGI-HeLa co-culture (AID 2286);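 note: cells exposed to compound for at least 64 h before ATP readout; 100% = median of DMSO vehicle wells with no ATP signal meaning 0%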
Conditions: MAGI-CCR5 cells viability, CellTiter-Glo ATP luminescence; for minimum viability: measured here: MAGI minimum viability across doses
[1] = MAGI-HeLa co-culture viability, at 50 µM, stronger effect = lower value
[2] = at 1.56 µM, stronger effect = lower value
[3] = at 12.5 µM, stronger effect = lower value
[4] = at 6.25 µM, stronger effect = lower value

SMILES	viability [1] [%]	viability (at 50 µM (top of the series))	minimum viability (at 50 µM, stronger effect = lower value) [%]	also measured
Oc1c(Br)cc(Br)c(/C=N/n2c(-c3ccccc3)n[nH]c2=S)c1Br	99.3	90.8% (inactive)	90.8	
CCOC(=O)C1=C(C)N=c2s/c(=C/c3ccc(OCC(=O)O)cc3)c(=O)n2C1c1ccc(SC)cc1 (configuration not stated)	101	88.1% (inactive)	88.1	
COc1cc(NS(=O)(=O)c2ccc(NC(=S)NC(=O)c3sc4ccccc4c3Cl)cc2)nc(OC)n1	105		76.8	
O=C(O)c1ccccc1-c1ccccc1C(=O)Nc1ccc(-c2nc3cc(Cl)ccc3o2)cc1	80.5		56.8	
O=C(O)c1cc(-c2ccc(/C=C3\NC(=O)N(c4ccc(Cl)cc4)C3=O)o2)ccc1Cl	95.2	102% (inactive)		minimum viability (at 0.78 µM, stronger effect = lower value): 93.3%
CCS(=O)(=O)C1=NN2C(=N)/C(=C\c3ccc(OS(=O)(=O)c4ccccc4)c(OC)c3)C(=O)N=C2S1	97.9	85.5% (inactive)		minimum viability [2]: 82.4%
O=C(O)c1ccc(-c2ccc(/C=c3/sc4nc5ccccc5n4c3=O)o2)cc1Cl	116	92.3% (inactive)		minimum viability (at 25 µM, stronger effect = lower value): 87.5%
COc1cccc(-c2coc3c(C)c4oc(=O)c(CCC(=O)O)c(C)c4cc23)c1	83.6		55.5	
CCc1nnc(NS(=O)(=O)c2ccc(NC(=S)NC(=O)/C=C/c3ccc(F)cc3)cc2)s1	115	89.6% (inactive)		minimum viability [3]: 83.8%
COc1cccc(NS(=O)(=O)c2ccc3c(c2)C2C=CCC2C(c2ccc(C(=O)O)cc2)N3)c1 (configuration not stated)	120	108% (inactive)		minimum viability [2]: 88.6%
O=C1NN(c2ccc(Cl)c(Cl)c2)C(=O)/C1=C/c1ccc(-c2ccccc2C(=O)O)o1	121	105% (inactive)		minimum viability [2]: 89.7%
CS(=O)(=O)C1=NSC2=NC(=O)/C(=C\c3cccn3-c3ccc(Cl)cc3)C(=N)N21	93.6	88% (inactive)	88	
COc1ccc(-c2csc(NC(=O)CSc3nc(C)nc4sc(C(=O)O)c(C)c34)n2)cc1	109	99.7% (inactive)		minimum viability [2]: 83.4%
CCOc1ccc(C2C(C(=O)Nc3ccccc3)=C(C)N=c3s/c(=C/c4cccc(OCC(=O)O)c4)c(=O)n32)cc1 (configuration not stated)	94.8	96.2% (inactive)		minimum viability [2]: 87.8%
N#Cc1c(-c2ccccc2)nc(SCc2cccc(C(F)(F)F)c2)[nH]c1=O	115	82.1% (inactive)	82.1	
CC(C)S(=O)(=O)C1=NSC2=NC(=O)/C(=C\c3ccc(-c4ccccc4)o3)C(=N)N21	123		73.2	
N#Cc1c(-c2ccccc2)nc(SCC(=O)Nc2ccc(OC(F)(F)Cl)cc2)[nH]c1=O	102	96.6% (inactive)		minimum viability (at 25 µM, stronger effect = lower value): 84.9%
Cc1ccc(S(=O)(=O)Oc2ccc(/C=C3\C(=N)N4N=C(S(C)(=O)=O)SC4=NC3=O)cc2)cc1	103	98.5% (inactive)		minimum viability (at 25 µM, stronger effect = lower value): 97.1%
O=C(O)c1[nH]c2ccccc2c1C(c1cccc(O)c1)c1c(C(=O)O)[nH]c2ccccc12	95.1	91.2% (inactive)		minimum viability [4]: 86.4%
CCOc1cc(Br)cc(C(c2c(C(=O)O)[nH]c3ccccc23)c2c(C(=O)O)[nH]c3ccccc23)c1O	100	87% (inactive)		minimum viability [4]: 82.9%

SMILES	viability [1] [%]	viability (at 50 µM (top of the series))	minimum viability (at 50 µM, stronger effect = lower value) [%]	also measured
CC(C)COc1ccc(-c2nn(-c3ccccc3)cc2/C=C2/SC(=S)N(CC(=O)O)C2=O)cc1	90.2	81.5% (inactive)	81.5	
COC1C(OC(=O)c2ccc(C)[nH]2)C(O)C(Oc2ccc3c(O)c(NC(=O)c4ccc(O)c(CC=C(C)C)c4)c(=O)oc3c2Cl)OC1(C)C (configuration not stated)	111	81.8% (inactive)	81.8	
COc1cc(/C=C2\C(=N)N3N=C(S(C)(=O)=O)SC3=NC2=O)ccc1OC(=O)c1cccs1	109	96.7% (inactive)		minimum viability (at 0.2 µM, stronger effect = lower value): 86.5%
Cc1ccccc1N/N=C/c1sc(=O)n(Cc2cccc(C(=O)O)c2)c1Cl	109		72.9	
O=C(COc1ccc(Cl)cc1)Nc1cc(NC(=O)COc2ccc(Cl)cc2)cc(C(=O)O)c1	99.5	105% (inactive)		minimum viability [3]: 98.6%
Cc1cc(C)cc(-n2cccc2/C=C2/C(=N)N3C(=NC2=O)SN=C3S(C)(=O)=O)c1	116	96.8% (inactive)	96.8	
Cc1ccc(-n2c(O)c(C=Nc3ccccc3-c3n[nH]c(=S)[nH]c3=O)c3ccccc3c2=O)c(C)c1	85.8		53.6	
O=C(O)c1[nH]c2ccccc2c1C(c1cc(Cl)cc([N+](=O)[O-])c1O)c1c(C(=O)O)[nH]c2ccccc12	96.1	99.1% (inactive)		minimum viability [3]: 93.4%
Cc1cc(N2C(=O)C(O)=C(C(=O)c3cc4ccccc4o3)C2c2cccc(Br)c2)no1 (configuration not stated)	137	87.1% (inactive)		minimum viability (at 25 µM, stronger effect = lower value): 86.4%
COc1ccc(-c2cc(-c3ccc(Cl)cc3)c(C#N)c(SCC(=O)O)n2)cc1	96.4	82.1% (inactive)	82.1	
O=C(O)c1cc(NN=C2c3ccccc3-c3ccccc32)ccc1Cl	114	93.1% (inactive)	93.1	
CC(C)(C)c1cc(-c2csc(Nc3ccccc3)[n+]2Cc2ccc(C(=O)O)cc2)cc(C(C)(C)C)c1O	96.4		72.2	
CC(C)(C)CC(C)(C)c1ccc(OCC(=O)N/N=C/c2ccc(S(=O)(=O)O)o2)cc1	104	87.8% (inactive)		minimum viability [3]: 81.1%
O=C(Nc1cccc(C(F)(F)F)c1)c1cccc(NS(=O)(=O)c2ccc(O)c(C(=O)O)c2)c1	107	85.7% (inactive)		minimum viability (at 25 µM, stronger effect = lower value): 83.3%
COc1ccc(NS(=O)(=O)c2ccc3c(c2)[C@H]2C=CC[C@H]2[C@@H](c2ccc(C(=O)O)cc2)N3)cc1	130	99.7% (inactive)		minimum viability (at 3.13 µM, stronger effect = lower value): 95.3%
O=C(Nc1cc(C(=O)Nc2ccccc2C(=O)O)cc(C(=O)Nc2ccccc2C(=O)O)c1)c1ccccc1	122	113% (inactive)		minimum viability [4]: 90.9%
CCCCCNC(=O)c1ccc2c(=O)[nH]c3c(C(=O)NCC4CCCO4)sc(=S)n3c2c1 (configuration not stated)	105			minimum viability (at 25 µM, stronger effect = lower value): 69.3%
N#Cc1c(-c2ccccc2)nc(SCc2cccc(Cl)c2)[nH]c1=O	101	95.8% (inactive)		minimum viability (at 25 µM, stronger effect = lower value): 88%
COc1cc(OC)c2c(O)c3c(c(-c4c5c(c(O)c6c(OC)cc(OC)cc46)CO[C@@H](C)[C@H]5O)c2c1)[C@H](O)[C@H](C)OC3	102	103% (inactive)		minimum viability [3]: 88.2%
O=C(O)CCCN1C(=O)/C(=C/c2ccc(-c3nc4ccccc4s3)o2)SC1=S	99.7	92.1% (inactive)		minimum viability (at 0.1 µM, stronger effect = lower value): 87.2%
